In patent US10028992B2, “Methods of treating muscular dystrophy” (BOARD OF REGENTS OF THE NEVADA SYSTEM OF HIGHER EDUCATION …, priority 2012, dated 2018):

Tested on: α7 integrin promoter
Assay: muscle cell-based assay: α7βgal+/− myoblasts/myotubes, LacZ reporter, β-galactosidase cleavage of FDG
Parameters: species or system mouse; Results in α7+/− β-galactosidase assay: scale not given here
Settings: for AC50: log of AC50, given with negative sign, unit of AC50 not given, read-out: Fit Log AC50 (converted); for Fit Curve Class: key not given
Experimental: An α7 integrin null mouse was produced in which exon 1 of the gene encoding the α7 integrin was replaced by the LacZ reporter. In these mice, all the transcriptional regulatory elements of the α7 integrin promoter were retained, allowing β-galactosidase to report expression of 7 integrin. A primary myoblast cell line (designated α7βgal^+/−) isolated from 10 day old α7^+/− pups were analyzed for the ability of β-galactosidase to report α7 integrin expression. α7βgal^+/− myoblasts were differentiated and subjected to X-gal staining and western analysis (FIGS. 1A and 1B).
The activity of the α7 integrin promoter was measured by β-galactosidase cleavage of the non-fluorescent compound fluorescein di-β-D-galactopyranoside (FDG) to fluorescein. This assay was used to screen compound libraries to identify molecules that up-regulate α7 integrin expression in muscle.
Also evaluated was the effect of various isoforms of laminin and the ligand for α7β1 integrin on integrin expression. Positive hits were subjected to dose-response analysis, western analysis and a myostatin counterscreen (a negative regulator of muscle growth).

[1] = Table 12, fitted activity at zero concentration
[2] = Table 12 Compound data, concentration-response curve fit

Compound	AC50 (Mus musculus, Table 12)	Fit HillSlope (Table 12, curve fit)	Fit Zero Activity [%] [1]	Fit Curve Class (Table 12)	Score [2]	Results in α7+/− β-galactosidase assay (Myoblasts, 0.5 uM)	Results in α7+/− β-galactosidase assay (Myoblasts, 1 uM)	Results in α7+/− β-galactosidase assay (Myoblasts, 5 uM)	Results in α7+/− β-galactosidase assay (Myoblasts, 10 uM)	Results in α7+/− β-galactosidase assay (Myoblasts, 20 uM)	Results in α7+/− β-galactosidase assay (Myoblasts, 40 uM)	other results
NS(=O)(=O)c1ccc(NC(=O)c2cc(-c3ccccc3O)[nH]n2)cc1 [Compound 105]	10 µM	3.5117	16.8467%	2.1	43							
CCCc1nnc(SCC(=O)NC2CCCC2)n1CCOC [drawing 675]						0.1622	0.07572	−0.08939	−0.107	−0.1998	−0.413	
Cc1cc(C)c(/C=C2\C(=O)Nc3ccccc32)[nH]1 [drawing 512]												Results in α7+/− β-galactosidase assay (Myotubes, 0.5 uM): −0.1661; Results in α7+/− β-galactosidase assay (Myotubes, 1 uM): −0.09119; Results in α7+/− β-galactosidase assay (Myotubes, 5 uM): −0.3196; Results in α7+/− β-galactosidase assay (Myotubes, 10 uM): 0.09661; Results in α7+/− β-galactosidase assay (Myotubes, 20 uM): −0.05031; Results in α7+/− β-galactosidase assay (Myotubes, 40 uM): 0.151
N#CC1=C2SCN(c3ccccc3)CN2C(=O)CC1c1cccs1 (centres unmarked) [drawing 568]						−0.02125	−0.07703	−0.07651	−0.05714	0.1121	−0.08344	
Cc1ccc(NC(=O)NCc2nc3ccccc3n2C)cc1 [Compound 77]	4.47 µM	1.8617	−34.2328%	2.1	44							
CCOC(=O)c1nnn(-c2nonc2OC)c1-c1ccccc1 [drawing 552]						0.01584	0.107	0.07484	−0.08302	0.003125	−0.1081	
CCOC(=O)C1(Cc2cccc(Cl)c2)CCCN(C(=O)CCSC)C1 (centres unmarked) [drawing 604]						0.08932	−0.00471	−0.04484	−0.02503	−0.06029	−0.2262	
CCN(CC(=O)NCc1cccs1)C(=O)COc1ccc(C(N)=O)cc1 [drawing 354]												Results in a α7+/− β-galactosidase assay, Myotubes, 0.5 uM (Myotubes, compound at 0.5 uM): 0.06872; Results in a α7+/− β-galactosidase assay, Myotubes, 1 uM (Myotubes, compound at 1 uM): −0.07237; Results in a α7+/− β-galactosidase assay, Myotubes, 5 uM (Myotubes, compound at 5 uM): 0.09763; Results in a α7+/− β-galactosidase assay, Myotubes, 10 uM (Myotubes, compound at 10 uM): 0.2952; Results in a α7+/− β-galactosidase assay, Myotubes, 20 uM (Myotubes, compound at 20 uM): −0.2218; Results in a α7+/− β-galactosidase assay, Myotubes, 40 uM (Myotubes, compound at 40 uM): −0.02391
N=C(NOC(=O)COc1cc(Cl)c(Cl)cc1Cl)c1ccncc1 [Compound 125]												EC50 (Mus musculus, given as log AC50 (negative values), read-out: Fit LogAC50 (converted)): 11.2 µM; Score (Table 12 compound data): 43; Fit Curve Class (curve class number): 2.1; Fit HillSlope (curve fit): 1.1705; Fit Zero Activity [%] (curve fit, activity at zero concentration): −2.6906%
N#Cc1ccc(Sc2nc3ccccc3[nH]2)cc1C#N [drawing 584]						0.3095	0.07925	0.2487	0.1199	0.003655	−0.1111	
O=C(COC(=O)c1cc2ccccc2oc1=O)Nc1ccc(F)cc1F [Compound 60]	4.47 µM	1.7529	−12.5146%	2.1	45							
CCOc1ccc2oc(C(=O)OCC(=O)NC(=O)NC)c(C)c2c1 [Compound 115]	7.08 µM	1.8265	−4.8829%	2.2	43							
Cc1ccc(CNc2ncnc(N)c2[N+](=O)[O-])cc1 [Compound 120]	10 µM	0.8	11.933%	2.1	43							
Cc1cc(N2CCOCC2)nc2ccc(N/C(S)=N/Cc3ccc4c(c3)OCO4)cc12 [Compound 122]	10 µM	1.2475	0.5248%	2.1	43							
